Measured values reported in patent publication US8632767B2, “3-[1-(3-haloalkyl)triazolyl]phenyl sulphide derivatives as acaricides and insecticides” (Bayer Intellectual Property GmbH, priority 2009, dated 2014).

Tests used:
[1] = tested on: greenhouse red spidermite (Tetranychus urticae); assay: Tetranychus test; OP resistant (TETRUR spray treatment), Example 5, comparison with prior art; format: in vivo; details: 20 g/ha, 6d
Description: (§1) Solvents: 78.0 parts by weight of acetone • • 1.5 parts by weight of dimethylformamide Emulsifier: 0.5 part by weight of alkylaryl polyglycol ether An appropriate preparation of active compound is prepared by mixing 1 part by weight of active compound with the stated amounts of solvent and emulsifier and diluting the concentrate with emulsifier-containing water to the desired concentration. Leaf discs of bean (Phaseolus vulgaris) infested by all stages of the greenhouse red spidermite (Tetranychus urticae) are sprayed with a preparation of active compound at the desired concentration. After the desired time, the effect in % is determined. Here, 100% means that all of the mites have been killed; 0% means that no mites have been killed.

[2] = log P by HPLC on reversed-phase C18, LC-MS, pH 2.7, formic acid (HCOOH); format: physicochemical; details: reversed-phase C18 HPLC column; HPLC C18, pH 2.7, 0.1% aqueous formic acid/acetonitrile
Description: (§2) The log P values reported in the table above and in the preparation examples were determined in accordance with EEC Directive 79/831 Annex V.A8 by HPLC (High Performance Liquid Chromatography) on reversed-phase columns (C18), with the following methods: ^[b] The determination is made by LC-MS in the acid range at pH 2.7 with 0.1% aqueous formic acid and acetonitrile (containing 0.1% formic acid) as eluents; linear gradient from 10% acetonitrile to 95% acetonitrile. Calibration took place with unbranched alkan-2-ones (having 3 to 16 carbon atoms) of known log P values (log P values determined from the retention times by linear interpolation between two successive alkanones).

Boophilus microplus = Boophilus microplus test (BOOPMI injection); format: in vivo; details: Rhipicephalus microplus, 168 h; 20 μg/animal, injection into abdomen, after 7 days; read-out: activity (no fertile eggs laid)
Description: Solvent: Dimethyl Sulphoxide An appropriate preparation of active compound is prepared by mixing 10 mg of active compound with 0.5 ml of solvent and diluting the concentrate with solvent to the desired concentration. The solution of active compound is injected into the abdomen (Boophilus microplus) and the animals are transferred into dishes and kept in a controlled atmosphere. The activity is assessed on the basis of deposition of fertile eggs. After 7 days, the effect in % is determined. Here, 100% means that none of the ticks has laid fertile eggs.

[3] = tested on: greenhouse red spidermite (Tetranychus urticae); assay: Tetranychus test; OP resistant (TETRUR spray treatment), Example 3; format: in vivo; details: foliar, 144 h, spray on bean leaf discs, after 6 days, read-out: effect (mites killed)
Description: as §1, with “6 days,” for “the desired time,”

Meloidogyne incognita = Meloidogyne incognita test (MELGIN); format: in vivo; details: 20 ppm, lettuce in sand, after 14 days
Description: Solvents: 78.0 parts by weight of acetone • • 1.5 parts by weight of dimethylformamide Emulsifier: 0.5 part by weight of alkylaryl polyglycol ether An appropriate preparation of active compound is prepared by mixing 1 part by weight of active compound with the stated amounts of solvent and emulsifier and diluting the concentrate with water to the desired concentration. Pots are filled with sand, solution of active compound, meloidogyne incognita egg/larvae suspension, and lettuce seeds. The lettuce seeds germinate and the plants develop. On the roots, the galls develop. After 14 days, the nematicidal effect is determined from the gall formation, in %. Here, 100% means that no galls were found; 0% means that the number of galls on the treated plants corresponds to that for the untreated control.

[4] = tested on: larvae of the mustard beetle (Phaedon cochleariae); assay: Phaedon test (PHAECO spray treatment); format: in vivo; details: foliar, 168 h, spray on Chinese cabbage leaf discs, after 7 days, read-out: effect (beetle larvae killed)
Description: Solvents: 78.0 parts by weight of acetone • • 1.5 parts by weight of dimethylformamide Emulsifier: 0.5 part by weight of alkylaryl polyglycol ether An appropriate preparation of active compound is prepared by mixing 1 part by weight of active compound with the stated amounts of solvent and emulsifier and diluting the concentrate with emulsifier-containing water to the desired concentration. Leaf discs of Chinese cabbage (Brassica pekinensis) are sprayed with a preparation of active compound at the desired concentration and, after they have dried, are populated with larvae of the mustard beetle (Phaedon cochleariae). After 7 days, the effect in % is determined. Here, 100% means that all of the beetle larvae have been killed; 0% means that no beetle larvae have been killed.

[5] = log P by HPLC on reversed-phase C18, eluent variant not stated; format: physicochemical; details: reversed-phase C18 HPLC column
Description: as §2, with “methods:” for “methods: ^[b] The determination is made by LC-MS in the acid range at pH 2.7 with 0.1% aqueous formic acid and acetonitrile (containing 0.1% formic acid) as eluents; linear gradient from 10% acetonitrile to 95% acetonitrile.”

[6] = log P by HPLC on reversed-phase C18, pH 2.3, phosphoric acid (H3PO4); format: physicochemical; details: reversed-phase C18 HPLC column; HPLC C18, pH 2.3, 0.1% aqueous phosphoric acid/acetonitrile
Description: as §2, with “^[a]” for “^[b]”, “made” for “made by LC-MS”, “2.3” for “2.7”, “phosphoric” for “formic”, “acetonitrile” for “acetonitrile (containing 0.1% formic acid)”

Cc1cc(C)c(-n2cnc(C(F)(F)F)n2)cc1SCC(F)(F)F [VI-297, reference compound]
% effect after application [1]: 70 6d %

Cc1cc(C)c([S+]([O-])CC(F)(F)F)cc1-n1cnc(C(F)F)n1 (stereo not drawn) [I-A-4, 3-(Difluoromethyl)-1-{2,4-dimethyl-5-[(2,2,2-trifluoroethyl)sulphinyl]phenyl}-1H-1,2,4-triazole]
chromatographic logP [2]: 2.19
pest or weed control at 0.02 mg (Boophilus microplus): 100%
pest or weed control at 100 g/ha [3]: 100%
nematicidal effect (gall formation) (Meloidogyne incognita): 100%

Cc1cc(C)c([S+]([O-])CC(F)(F)F)cc1-n1cnc(C(F)(F)C(F)(F)F)n1 (stereo not drawn) [I-A-10]
chromatographic logP [2]: 3.27
pest or weed control at 0.02 mg (Boophilus microplus): 100%
pest or weed control at 500 g/ha [4]: 100%
pest or weed control at 500 g/ha [3]: 100%

Cc1ccc(NNC(=O)C(F)F)c(C)c1 [N′-(2,4-Dimethylphenyl)-2,2-difluoroacetohydrazide]
chromatographic logP [5]: 1.8

Cc1cc(F)c(-n2cnc(C(F)F)n2)cc1SCC(F)(F)F [I-A-30]
chromatographic logP [2]: 3.28
pest or weed control at 500 g/ha [4]: 100%
pest or weed control at 100 g/ha [3]: 100%
nematicidal effect (gall formation) (Meloidogyne incognita): 90%

Cc1cc(F)c(-n2cnc(C(F)F)n2)cc1[S+]([O-])CC(F)(F)F (stereo not drawn) [I-A-15]
chromatographic logP [2]: 2.12
pest or weed control at 500 g/ha [4]: 100%
pest or weed control at 500 g/ha [3]: 100%
nematicidal effect (gall formation) (Meloidogyne incognita): 90%

Cc1cc(C)c(-n2cnc(C(F)F)n2)cc1SCC(F)F [I-A-1]
chromatographic logP [2]: 3.02
chromatographic logP [6]: 3.06
pest or weed control at 0.02 mg (Boophilus microplus): 100%
pest or weed control at 100 g/ha [3]: 100%

Cc1ccc(-n2cnc(C(F)F)n2)cc1SCC(F)(F)F [I-A-5]
chromatographic logP [2]: 3.24
pest or weed control at 0.02 mg (Boophilus microplus): 100%
pest or weed control at 500 g/ha [4]: 100%
pest or weed control at 100 g/ha [3]: 100%

Cc1ccc(-n2cnc(C(F)F)n2)cc1[S+]([O-])CC(F)(F)F (stereo not drawn) [I-A-16]
chromatographic logP [2]: 2.1
pest or weed control at 500 g/ha [4]: 100%
pest or weed control at 100 g/ha [3]: 100%
nematicidal effect (gall formation) (Meloidogyne incognita): 100%

FC(F)c1ncn(-c2ccc(Cl)c(SCC(F)(F)F)c2)n1 [I-A-9]
chromatographic logP [2]: 3.28
pest or weed control at 0.02 mg (Boophilus microplus): 100%
pest or weed control at 500 g/ha [4]: 100%
pest or weed control at 100 g/ha [3]: 100%
nematicidal effect (gall formation) (Meloidogyne incognita): 100%

[O-][S+](CC(F)(F)F)c1cc(-n2cnc(C(F)F)n2)ccc1Cl (stereo not drawn) [I-A-27]
chromatographic logP [2]: 2.39
pest or weed control at 0.02 mg (Boophilus microplus): 100%
pest or weed control at 500 g/ha [4]: 100%
pest or weed control at 100 g/ha [3]: 100%
nematicidal effect (gall formation) (Meloidogyne incognita): 100%

Cc1cc(C)c(-n2cnc(C(F)F)n2)cc1SCC(F)(F)F [I-A-2, 3-(Difluoromethyl)-1-{2,4-dimethyl-5-[(2,2,2-trifluoroethyl)sulphanyl]phenyl}-1H-1,2,4-triazole]
chromatographic logP [2]: 3.33
pest or weed control at 0.02 mg (Boophilus microplus): 100%
pest or weed control at 500 g/ha [3]: 100%
nematicidal effect (gall formation) (Meloidogyne incognita): 100%
% effect after application [1]: 100 6d %
